# Target: T1, cloned human dopamine D3 receptors (Homo sapiens, UniProt P35462)
# T1 construct: expressed in transfected cells
# Test: [N-Methyl-3H]Spiroperidol binding to cloned human dopamine D3 receptors
# Description: [N-Methyl-^3H]Spiroperidol Binding to Cloned Human Dopamine D3 Receptors
# This assay measures the in vitro activity of compounds on cloned human dopamine (D3) receptors and predicts the direct dopamine-blocking properties of putative neuropsychiatric agents at human dopamine D3 receptors.
# The D3 gene was isolated from a human striatal cDNA library (Stratagene). The gene was sequenced and sub-cloned into the expression vector RC/RSV (Invitrogen). CHO (Chinese Hamster Ovary) cells were stably transfected with 10 μg of the D3/RSV plasmid using the DOTAP method from Boehringer Mannheim and 72 clones that were G418 resistant were isolated. Using mRNA and binding displacement data a single high expressing clone was identified. This clone was then grown in large batches for the purpose of developing a 96 well format assay.
# The cells are harvested into 250 ml centrifuge tubes with 100 volumes of cold phosphate buffered saline (PBS) and spun down (1200×G for 10 min at 4° C.). The medium is removed and 100 ml PBS are added to each centrifuge tube, cells are resuspened and spun down again. The PBS is removed and the final pellet is homogenized in an appropriate volume of 10% DMSO with a polytron on ice at a medium setting.
# For Kj determinations: [^3H]NMSP is made up to a concentration of 2.7 nM in buffer 2b, such that when 150 μl is added to each tube a final concentration of 0.4 nM is attained in the 1 ml assay. Samples of total CPM added are taken for each experiment to calculate the total ligand concentration.
# 5. S(-)-Eticlopride is obtained from Research Biochemicals International (RBI catalog number E-101). A refrigerated stock (good for up to a month) solution of S(-)-eticlopride is made at a concentration of 30 μM in buffer 2b. One hundred microliters are added to 3 wells for the determination of nonspecific binding (this yields a final concentration of 3 μM in the 1 ml assay).
# For most assays, a 100 μM stock solution of the test compound is made up in a suitable solvent (usually <0.1% acetic acid) and serially diluted with buffer 2b, such that when 100 μl of drug is combined with the total 1 ml assay, final concentrations ranging from 10^−5-10^−8 M are attained. Characteristically eight concentrations are studied for each assay; however, higher or lower concentrations may be used, depending on the potency of the drug.
# The 96-Well Packard Unifilters GF/B are incubated for >1 h at 25° C. in 0.1% polyethylamine (from 3,b). The cold tissue is added last and mixed on a orbital shaker for a few seconds and is then incubated at 37° C. for 30 min in a shaking water bath. The assay is stopped by rapid filtration through Packard Unifilter plates. The filter membranes are then washed with 15 ml of ice-cold 0.05 M Tris buffer. The filters are then dried (˜15 min under a heat lamp or incubated for 15 min in a 60° C. oven) and a bottom seal is applied. Then 40 μl of Packard Microscint 20 scintillation cocktail is added and a permanent topseal (Type P) is applied and heat sealed. The plates are then shaken on an orbital shaker for 1 h and placed in the Packard Topcount and counted for at least 5 minutes for each point.
# Specific binding is defined as the difference between total binding and the binding in the presence of 3 μM S-(-)-eticlopride. Total binding is approximately 10% of the total added ligand. Cheng-Prusoff determination (Kj's) are performed using Prism software using a one-site competition curve analysis where the top and the bottom of the non-linear regression are held constant at 0% and 100% percent inhibition. The percent inhibition at each drug concentration is the mean of duplicate determinations.
# T1 sequence (P35462 whole entry): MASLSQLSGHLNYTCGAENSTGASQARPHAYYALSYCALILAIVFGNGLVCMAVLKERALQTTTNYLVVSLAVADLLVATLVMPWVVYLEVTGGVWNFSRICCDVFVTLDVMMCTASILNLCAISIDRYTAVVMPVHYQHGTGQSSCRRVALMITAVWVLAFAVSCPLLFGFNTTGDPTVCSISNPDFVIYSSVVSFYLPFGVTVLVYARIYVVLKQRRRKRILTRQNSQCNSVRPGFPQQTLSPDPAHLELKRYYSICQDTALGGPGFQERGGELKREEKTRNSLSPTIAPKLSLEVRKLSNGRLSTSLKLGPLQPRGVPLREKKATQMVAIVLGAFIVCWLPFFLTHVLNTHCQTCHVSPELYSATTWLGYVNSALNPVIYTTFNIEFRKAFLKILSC
row,Compound,Ki
1,COc1cccc(NC(=O)NCCCCN2CCCN(c3csc4cc(F)ccc34)CC2)c1 [compound 829221],0.0961 nM
2,Cc1cccc(NC(=O)NCCCCN2CCN(c3noc4ccsc34)CC2)c1 [compound 829369],44.2 nM
3,O=C(NCCCCN1CCN(c2noc3ccsc23)CC1)Nc1cccc(Cl)c1 [compound 829370],4.91 nM
4,O=C(NCCCCN1CCN(c2noc3ccsc23)CC1)Nc1ccc(F)cc1F [compound 829371],55.2 nM
5,O=C(NCCCCN1CCN(c2noc3ccsc23)CC1)Nc1ccc(C(F)(F)F)cc1 [compound 829372],31.9 nM
6,O=C(NCCCCN1CCN(c2noc3ccsc23)CC1)Nc1cccc(Br)c1 [compound 829373],14.9 nM
7,O=C(NCCCCN1CCN(c2noc3ccsc23)CC1)Nc1ccc(OC(F)(F)F)cc1 [compound 829374],103 nM
8,O=C(NCCCCN1CCN(c2noc3ccsc23)CC1)Nc1cc(C(F)(F)F)cc(C(F)(F)F)c1 [compound 829375],176 nM
9,O=C(NCCCCN1CCN(c2noc3ccsc23)CC1)Nc1cc(F)ccc1F [compound 829377],87.9 nM
10,O=C(NCCCCN1CCN(c2noc3ccsc23)CC1)Nc1cc(Cl)cc(Cl)c1 [compound 829378],184 nM
11,CSc1ccc(NC(=O)NCCCCN2CCN(c3noc4ccsc34)CC2)cc1 [compound 829379],54.9 nM
12,Cc1ccc(NC(=O)NCCCCN2CCN(c3noc4ccsc34)CC2)cc1 [compound 829380],26.9 nM
13,CC(=O)c1cccc(NC(=O)NCCCCN2CCN(c3noc4ccsc34)CC2)c1 [compound 829381],46.5 nM
14,CCOc1ccc(NC(=O)NCCCCN2CCN(c3noc4ccsc34)CC2)cc1 [compound 829382],42.7 nM
15,N#Cc1cccc(NC(=O)NCCCCN2CCN(c3noc4ccsc34)CC2)c1 [compound 829383],102 nM
16,COc1cc(NC(=O)NCCCCN2CCN(c3noc4ccsc34)CC2)cc(OC)c1OC [compound 829384],190 nM
17,O=C(NCCCCN1CCN(c2noc3ccsc23)CC1)Nc1cc(C(F)(F)F)ccc1F [compound 829385],142 nM
18,O=C(NCCCCN1CCN(c2noc3ccsc23)CC1)Nc1ccc(F)c(C(F)(F)F)c1 [compound 829387],114 nM
19,O=C(NCCCCN1CCN(c2noc3ccsc23)CC1)Nc1ccc(F)cc1 [compound 829388],44 nM
20,O=C(NCCCCN1CCN(c2noc3ccsc23)CC1)Nc1ccc(Cl)c(Cl)c1 [compound 829389],50.5 nM
21,O=C(NCCCCN1CCN(c2noc3ccsc23)CC1)Nc1ccc(Cl)cc1 [compound 829390],37.5 nM
22,O=C(NCCCCN1CCN(c2noc3ccsc23)CC1)Nc1ccc(Cl)cc1C(F)(F)F [compound 829392],487 nM
23,O=C(NCCCCN1CCN(c2noc3ccsc23)CC1)Nc1ccccc1F [compound 829393],190 nM
24,O=C(NCCCCN1CCN(c2noc3ccsc23)CC1)Nc1cccc(F)c1 [compound 829394],77.1 nM
25,O=C(NCCCCN1CCN(c2noc3ccsc23)CC1)Nc1cccc(C(F)(F)F)c1 [compound 829395],148 nM
26,COc1ccc(NC(=O)NCCCCN2CCN(c3noc4ccsc34)CC2)cc1 [compound 829396],121 nM
27,O=C(NCCCCN1CCN(c2noc3ccsc23)CC1)Nc1ccc(Br)cc1 [compound 829397],86.6 nM
28,COc1cccc(NC(=O)NCCCCN2CCN(c3noc4ccsc34)CC2)c1 [compound 829398],44.1 nM
29,CC(C)c1ccc(NC(=O)NCCCCN2CCN(c3noc4ccsc34)CC2)cc1 [compound 829407],452 nM
30,O=C(NCCCCN1CCCN(c2noc3ccsc23)CC1)Nc1cccc(Cl)c1 [compound 829409],379 nM

# The next lines start with the values.
row,Ki,Compound
1,670 nM,O=C(NCCCCN1CCCN(c2noc3ccsc23)CC1)Nc1ccc(C(F)(F)F)cc1 [compound 829411]
2,546 nM,O=C(NCCCCN1CCCN(c2noc3ccsc23)CC1)Nc1cc(C(F)(F)F)cc(C(F)(F)F)c1 [compound 829414]
3,345 nM,O=C(NCCCCN1CCCN(c2noc3ccsc23)CC1)Nc1cc(C(F)(F)F)ccc1Cl [compound 829415]
4,327 nM,O=C(NCCCCN1CCCN(c2noc3ccsc23)CC1)Nc1ccc(Cl)c(C(F)(F)F)c1 [compound 829416]
5,338 nM,O=C(NCCCCN1CCCN(c2noc3ccsc23)CC1)Nc1cc(F)ccc1F [compound 829417]
6,52.9 nM,O=C(NCCCCN1CCCN(c2noc3ccsc23)CC1)Nc1cc(Cl)cc(Cl)c1 [compound 829418]
7,138 nM,Cc1ccc(NC(=O)NCCCCN2CCCN(c3noc4ccsc34)CC2)cc1 [compound 829419]
8,233 nM,CSc1ccc(NC(=O)NCCCCN2CCCN(c3noc4ccsc34)CC2)cc1 [compound 829420]
9,173 nM,CC(=O)c1cccc(NC(=O)NCCCCN2CCCN(c3noc4ccsc34)CC2)c1 [compound 829421]
10,466 nM,CC(C)c1ccc(NC(=O)NCCCCN2CCCN(c3noc4ccsc34)CC2)cc1 [compound 829422]
11,539 nM,O=C(NCCCCN1CCCN(c2noc3ccsc23)CC1)Nc1cc(C(F)(F)F)ccc1F [compound 829425]
12,459 nM,O=C(NCCCCN1CCCN(c2noc3ccsc23)CC1)Nc1ccc(F)c(C(F)(F)F)c1 [compound 829427]
13,747 nM,O=C(NCCCCN1CCCN(c2noc3ccsc23)CC1)Nc1ccc(F)cc1 [compound 829428]
14,111 nM,O=C(NCCCCN1CCCN(c2noc3ccsc23)CC1)Nc1ccc(Cl)c(Cl)c1 [compound 829429]
15,153 nM,O=C(NCCCCN1CCCN(c2noc3ccsc23)CC1)Nc1cccc(F)c1 [compound 829431]
16,226 nM,O=C(NCCCCN1CCCN(c2noc3ccsc23)CC1)Nc1cccc(C(F)(F)F)c1 [compound 829432]

row,Ki,Compound
1,216 nM,COc1ccc(NC(=O)NCCCCN2CCCN(c3noc4ccsc34)CC2)cc1 [compound 829433]
2,197 nM,O=C(NCCCCN1CCCN(c2noc3ccsc23)CC1)Nc1ccc(Br)cc1 [compound 829434]
3,27.7 nM,CCOc1ccc(NC(=O)NCCCCN2CCC(c3noc4c(C)csc34)CC2)cc1 [compound 829873]
4,360 nM,CCOc1ccc(NC(=O)N(CCCCN2CCC(c3noc4c(C)csc34)CC2)C(=O)Nc2ccc(OCC)cc2)cc1 [compound 829874]
5,94.7 nM,Cc1csc2c(C3CCN(CCCCN(C(=O)Nc4cccc(F)c4)C(=O)Nc4cccc(F)c4)CC3)noc12 [compound 829875]
6,77.1 nM,COc1cccc(NC(=O)N(CCCCN2CCC(c3noc4c(C)csc34)CC2)C(=O)Nc2cccc(OC)c2)c1 [compound 829876]
7,8.78 nM,Cc1cccc(NC(=O)NCCCCN2CCC(c3noc4c(C)csc34)CC2)c1 [compound 829878]
8,354 nM,Cc1csc2c(C3CCN(CCCCNC(=O)Nc4ccccc4F)CC3)noc12 [compound 829879]
9,143 nM,Cc1csc2c(C3CCN(CCCCNC(=O)Nc4cccc(C(F)(F)F)c4Cl)CC3)noc12 [compound 829882]
10,9.04 nM,Cc1ccc(NC(=O)NCCCCN2CCC(c3noc4cc(C)sc34)CC2)cc1 [compound 830517]
11,9.16 nM,COc1ccc(NC(=O)NCCCCN2CCC(c3noc4cc(C)sc34)CC2)cc1 [compound 830518]
12,61.6 nM,O=C(NC[C@@H]1C[C@H]1CN1CCN(c2csc3cc(C(F)(F)F)ccc23)CC1)Nc1cccc(F)c1 [compound 832786]
13,33.5 nM,COc1ccc(NC(=O)NC[C@@H]2C[C@H]2CN2CCN(c3csc4cc(C(F)(F)F)ccc34)CC2)cc1 [compound 832810]
14,18.2 nM,O=C(NC[C@@H]1C[C@H]1CN1CCN(c2csc3cc(C(F)(F)F)ccc23)CC1)NC1CCCCC1 [compound 832811]
15,39.5 nM,O=C(NC[C@@H]1C[C@H]1CN1CCN(c2csc3cc(C(F)(F)F)ccc23)CC1)Nc1ccccc1C(F)(F)F [compound 832812]
16,50.8 nM,O=C(NC[C@@H]1C[C@H]1CN1CCN(c2csc3cc(C(F)(F)F)ccc23)CC1)Nc1cccc(Cl)c1 [compound 832813]

# Source: patent publication US20030229066A1, “Novel heterocyclic urea derivatives and their use as dopamine D3 receptor ligands” (priority 2001, published 2003)
